Two compounds from paper PMC13168289, “Potent acridone antimalarial against all three life stages of Plasmodium” (Nature Communications, 2026) can be followed below.

Data set [1] can be described thus: pilot safety study in rhesus monkeys. Particulars: response to reviewers. The class given is in vivo.
Data set [2] concerns P. falciparum NF54 oocysts in mosquitoes. Description: tarsal contact assay. Format: in vivo, P. falciparum in Anopheles gambiae G3. Particulars: 5% by weight film, 6 min contact. How it is done:
The tarsal assay using a thin film was performed. For preparation of a thin film, 25 mL xylenes and 1.0 g low density polyethylene polymer were combined on the lid of a glass petri dish (6 cm) and heated at 150 °C until the polymer was dissolved. Xylenes were occasionally replenished upon evaporation. A solution of xylenes containing […] prodrug was then added to the above solution. […] The crude polymer thin film was then put underneath the glass petri dish, and the assembled apparatus was heated on a hot plate with a weight placed on top. The resulting extruded polymer thin film containing the 5% (w/w) […] prodrug in low-density polyethylene (LDPE) was allowed to cool and removed from the petri dish lid. […] After exposure, the mosquitoes were immediately transferred to a cage and one hour later provided with cultured P. falciparum NF54 gametocyte-infected erythrocytes using a membrane feeder. […] On Day 7 post-infection, mosquitoes were aspirated into 80% ethanol and incubated at -20 °C for 10 min before being transferred to 1X PBS for dissection. […] Midguts were imaged and oocysts counted at 100× magnification on an Olympus Inverted CKX41 microscope to quantify oocyst prevalence and intensity.

For data set [3], the system named is P. cynomolgi hypnozoites and schizonts. Kind of data set: in vitro liver-stage P. cynomolgi assay in primary rhesus hepatocytes. The class given is cell-based, Plasmodium cynomolgi. Particulars: read-out: inhibition IC50. As to the method: (§1) The liver-stage P. cynomolgi assay was designed to identify anti-hypnozoite drugs utilizing a 384-well in vitro culture system[31],[37]. Briefly, cryopreserved primary simian hepatocytes (donor lots XGB, OQB, and QHO: BioIVT, Inc.) were seeded in collagen-coated 384-well plates and infected with P. cynomolgi bastianellii (B strain) sporozoites dissected from infected Anopheles dirus mosquitoes. Test compounds were solubilized in 100% DMSO and serially diluted 2-fold to generate up to a 12-point dose-response curve, maintaining a final DMSO concentration of 0.1% across all wells. Two distinct treatment modes were evaluated. For the prophylactic assay, to assess the prevention of infection, compound exposure began 1-hour post-infection with daily media changes on Days 1 and 2. For the radical cure assay, to assess activity against established liver forms, drugs were administered daily from Day 4 through Day 7 post-infection. […] For readout on Day 8, plates were fixed and stained via immunofluorescence to visualize parasite forms (hypnozoites and schizonts) and hepatocyte nuclei, and images were acquired using an Operetta CLS high-content imaging system (PerkinElmer). Host hepatocyte viability was measured in parallel to determine compound toxicity. Parasite forms were automatically quantified using Harmony 4.9 software, and percent inhibition and toxicity were calculated relative to in-plate DMSO vehicle controls. IC50 and CC50 (half-maximal cytotoxic concentrations) were determined by fitting dose-response data to a four-parameter logistic (variable slope) model using a custom Python script incorporating a grid search algorithm.

Another data set concerns rhesus hepatocytes. Kind of data set: host hepatocyte viability in the P. cynomolgi assay. The class given is cell-based. Particulars: radical cure mode; read-out: cytotoxicity CC50. How it is done: as §1

Like-named read-outs stand apart in the source and are kept apart here.

A word on the IC50: it is the concentration needed to halve the response being measured. By CC50 is commonly meant the concentration giving 50% cytotoxicity.

For `CCOC(=O)Oc1c2ccc(Oc3ccc(OC(F)(F)F)cc3)cc2nc2cc(Cl)cc(F)c12` [T111 prodrug], the tolerability entry in data set [1] is “well-tolerated”. Further, in data set [2], the “reduction in oocyst intensity (inhibition)” value came out at 97.6% and the “reduction in oocyst prevalence (inhibition)” value came to 92.5%.
For the compound `CNC(=O)c1ccc(-c2cnc3cnc(C(=O)N(C)c4ccc(Cl)cc4)cn23)cc1` [KDU691], the IC50 is 0.12 µM in data set [3] (prophylactic mode, hypnozoite); 0.098 µM in data set [3] (prophylactic mode, schizont); above 20 µM in data set [3] (radical cure mode, hypnozoite); 0.19 µM in data set [3] (radical cure mode, schizont). Moreover, the CC50 with rhesus hepatocytes is above 20 µM.
